# Assay results: US7256178B2, “Physiologically active substances” (priority 2002, dated 2007)
# What was measured:
# [1] = test system: HL-60 human leukemia cells; conditions: RPM-1640 culture medium; cited from earlier work
# [2] = Stability in an aqueous solution (HPLC); assay type: physicochemical; conditions: for Remaining percentage (%): pH 7 Britton-Robinson buffer solution, 25° C., 24 hours
# Experimental: The compound of the formula (I) was dissolved in DMSO at a concentration of 10 to 20 mM, and the solution was diluted with a pH 7 Britton-Robinson buffer solution to about 500-fold. This solution was used as a sample solution, and was incubated at 25° C. for 24 hours.
# The sample solution before and after the incubation was analyzed using high-performance liquid chromatography to obtain a chromatogram. The percentage of the compound remaining in the sample solution after the incubation was determined from the peak area of the chromatogram.
# [3] = test system: P388 mouse leukemia cells; conditions: cited from earlier work
# [4] = test system: L-1210 mouse leukemia cells; conditions: RPM-1640 culture medium; cited from earlier work
# [5] = test system: P388 mouse leukemia cells; conditions: RPM-1640 culture medium; cited from earlier work
smiles,measurement,setting,value
CCC(OC)C(C)C1OC1C(O)C(C)/C=C/C=C(\C)C1OC(=O)CC(O)CCC(C)(O)C(OC(C)=O)/C=C/C1C (stereo not shown) [FD-895],Cytotoxic activity in vitro,[1],has cytotoxic activity
same,Stability in an aqueous solution (in words),[2],instable in an aqueous solution
same,Remaining percentage (%),[2],83.0%
same,Remaining percentage (%),[2]; listed as FD895,83%
same,Antitumor activity in vivo,[3],did not show antitumor activity
same,Cytotoxic activity in vitro,[4],has cytotoxic activity
same,Cytotoxic activity in vitro,[5],has cytotoxic activity
